Data as given in US20250081966A1, “HERBICIDE COMBINATIONS” (UPL CORPORATION LIMITED, priority 2021, published 2025).

Key:
Type in all cases: in vivo
[1] = test system: Lolium multiflorum Lam. (Italian ryegrass, LOLMU); assay: Weight of the weed in wheat crop (Example 2); details: for % Decrease in weight of weed: versus untreated control
Method: (§1) Experiments were conducted to assess the efficacy of herbicidal combination comprising napropamide/napropamide-M to control a weed, Lolium multiflorum Lam. (Italian ryegrass, LOLMU) in wheat crop. The weed is resistant to control by conventional herbicides. Percentage efficacy of the herbicidal combination was determined over time (measured as days after anthesis, [DAA]) following application of the herbicidal combination comprising napropamide/napropamide-M and propisochlor. The herbicide combination was applied by spraying to LOLMU at pre-emergence stage.
Further, the effect of the herbicidal combination was also assessed for the weight of the weed in wheat crop and the results has been disclosed in Table 3.

[2] = test system: Lolium multiflorum Lam. (Italian ryegrass, LOLMU); assay: Weed control of LOLMU in wheat crop, pre-emergence spray (Example 2); details: 450 g/L
Method: as §1

LOLMU (S-strain) = assay: Efficacy of pre-emergence spray against resistant weed LOLMU (Example 1); details: sprayed at pre-emergence stage
Method: Experiments were conducted to assess the efficacy of herbicidal combination comprising napropamide/napropamide-M to control a weed (LOLMU) which is resistant to control by conventional herbicides. Percentage efficacy of the herbicidal combination was determined over time (measured as days after anthesis, [DAA]) following application the of herbicidal combination comprising napropamide/napropamide-M and prosulfocarb. The herbicidal combination was applied by spraying to LOLMU (S-strain) at pre-emergence stage.

CCN(CC)C(=O)C(C)Oc1cccc2ccccc12 (stereo not drawn) [Napropamid, N,N-diethyl-2-(α-naphthoxy) propionamide]
Weight of weed (g/m^2) ([1]; 450 g/L, dose 750 g/Ha): 2.11 g/m^2
% Decrease in weight of weed ([1]; 450 g/L, dose 750 g/Ha): 27%
Weight of weed (g/m^2) ([1]; 450 g/L, dose 1000 g/Ha): 1.86 g/m^2
% Decrease in weight of weed ([1]; 450 g/L, dose 1000 g/Ha): 36%
Weed control (%) 15 DAA ([2]; dose 750 g/Ha): 65%
Weed control (%) 25 DAA ([2]; dose 750 g/Ha): 83%
Weed control (%) 45 DAA ([2]; dose 750 g/Ha): 79%
Weed control (%) 15 DAA ([2]; dose 1000 g/Ha): 72%
Weed control (%) 25 DAA ([2]; dose 1000 g/Ha): 86%
Weed control (%) 45 DAA ([2]; dose 1000 g/Ha): 82%

CCN(CC)C(=O)[C@@H](C)Oc1cccc2ccccc12 [Napropamide-M 450 g/L, Napropamide-M]
Control in weed (%) (LOLMU (S-strain); dose 315 g/Ha): 69.80%

CCc1cccc(C)c1N(COC(C)C)C(=O)CCl [Propisochlor, propisochlor]
Weight of weed (g/m^2) ([1]; 720 g/L, dose 800 g/Ha): 760 g/m^2
% Decrease in weight of weed ([1]; 720 g/L, dose 800 g/Ha): 74%

CCCN(CCC)C(=O)SCc1ccccc1 [Prosulfocarb 800 g/L, prosulfocarb]
Control in weed (%) (LOLMU (S-strain); dose 2400 g/Ha): 68.14%
Control in weed (%) (LOLMU (S-strain); dose 5000 g/Ha): 78.02%
